Experimental data published in patent publication US8673882B2, “Inhibitors of autotaxin” (University of Tennessee Research Foundation, priority 2011, dated 2014).
“Also recorded” adds a separate entry of the source. Where two headings read alike, the source gives them in different places.

Columns and labels:
recombinant human ATX [1] = target: T1, recombinant human ATX (Homo sapiens, UniProt Q13822); experiment: Autotaxin inhibition screening assay (FS-3 FRET substrate); assay type: biochemical; settings: FS3 hydrolysis
[2] = test system: MM1 hepatocarcinoma cells; experiment: Invasion of HUVEC monolayer by MM1 cells; assay type: cell-based, rat; settings: for LPC-dependent invasion of the HUVEC monolayer: 1.5 μM LPC, FIG. 14; for basal rate of invasion: compounds alone, without LPC
Description: Cancer metastasis is a complex process that cannon be accurately modeled in vitro. Models that utilize cellular monolayers for the invasion of carcinoma cell come the closest to the situation in vivo. Two different cell monolayers, mouse mesothelium and human vascular endothelium were used to examine the role of ATX in the invasion of MM1 hepatocarcinoma cells and the reduction of such invasion by the chemical compounds of the present application. The mesothelial monolayer is an accepted model for invasion of body cavities lined by serous cells whereas, the HUVEC monolayer is considered to be an in vitro model of hematogenous invasion of carcinomas.
Highly invasive MM1 cells originally isolated from the AH130 rat hepatoma cells were utilized in these studies. The cells were grown in suspension in DMEM supplemented with 10% fetal bovine serum, 2 mM glutamine, 100 units/ml penicillin and 10 μg/ml streptoinycin. Mesothelial cells were isolated and cultured from C57BL/6 mice. Human umbilical cord vascular endothelial cells (HUVEC) were obtained from VEC Technologies Inc., (Rensselaer, N.Y., USA) and were grown in MCDB-131 complete medium containing 10% fetal bovine serum. 90 μg/ml heparin, 10 ng/ml EGF, 1 μg/ml hydrocortisone, 0.2 mg/ml EndoGrowth supplement, 100 units/ml penicillin G, 100 μg/ml streptomycin and 25 μg/ml amphotericin B (all from VEC Technologies). Tumor cell invasion was performed by seeding 1.3×10^5 HUVECs (passage 7) into each well of a 12-well plate pre-coated with 0.2% gelatin (Sigma) and cultured for 2 days to form a confluent monolayer. Mesothelial cells harvested from two-three mice were initially plated in 6-well plates and grown to confluency in DMEM medium supplemented with 10% fetal bovine serum in the presence of 100 units/ml penicillin G and 10 μg/ml streptomycin. When confluent, the mesothelial cells were split into three equal aliquots (˜5×10^4 cells each) and plated to three wells of a 12-well plate and grown to confluence.
Invasion of MM1 cells of Example 53 was determined and the effect of compounds of the present application in reducing the invasion was determined. For all invasion assays, MM1 cells were pre-stained with 2 μg/ml calcein AM (Invitrogen, USA) for 2 h, rinsed once, and seeded at a density of 5×10^4 cells/well over the monolayers. Tumor cells were left to invade the HUVEC monolayer for 24 h in MCDB-131 complete media containing 1% serum with or without addition of 1.5 μM LPC. MM1 cells were plated on the mesothelial monolayers in 2% fetal bovine serum-supplemented DMEM medium in the presence of 100 units/ml penicillin G and 10 μg/ml streptomycin with or without 1.5 μM LPC (5 μM for the mesothelium cells) and invasion was allowed to proceed for 20 h. The day after MM1 cell seeding, non-invaded tumor cells were removed by repeated five rinses of the HUVEC monolayer (three rinses for the mesothelial monolayers) with PBS (containing Ca^2+ and Mg^2+) followed by fixation with 10% buffered formalin. The number of tumor cells that penetrated the monolayer was photographed under a NIKON TiU inverted microscope using phase-contrast and fluorescence illumination in a minimum of five non-overlapping fields at 100× magnification. The fluorescent images were overlayed on top of the phase contrast images using the Elements BR software (version 3.1x) and the invaded MM1 cells showing the characteristic flattened morphology in the plane of focus underneath the monolayer were counted. […]

recombinant human ATX [3] = target: T1, recombinant human ATX; experiment: Autotaxin inhibition screening assay (FS-3 FRET substrate); assay type: biochemical; settings: for remaining activity at 10 µM: 1 μM FS-3, 37° C., read-out: ATX Activity, % control (10 μM); for inhibition at 10 µM: read-out: inhibition (reduction) of FS3 hydrolysis
Procedure: A 10 μM concentration of the compound is added to 2 nM recombinant human ATX and the FRET (Fluorescence Resonance Energy Transfer) ATX substrate FS-3.
As the first level of screen, 50 μl of recombinant-ATX (2 nM in final concentration) in assay buffer [(Tris 50 mM, NaCl 140 mM, KCl 5 mM, CaCl2 1 mM, MgCl2 1 mM (pH 8.0)] was mixed with 25 μL of FS-3 (Echelon Biosciences, Inc., Salt lake city, Utah), final concentration 1 μM, and 25 μl of test compound was dissolved in assay buffer with 40 μM bovine serum albumin (Sigma, St. Louis, Mo.) in 96-well Costar black-well plate. FS-3 fluorescence at excitation and emission wavelengths of 485 and 538 nm, respectively, were monitored using a FLEXstation II (Molecular Devices, Sunnyvale, Calif.) for 2 h of incubation at 37° C. The differences between time 0 and 120 min were calculated individually and normalized to the vehicle control. The mean±SD of triplicate samples was expressed as percentage of ATX activity. The ATX activity in the presence of the test compounds was compared to vehicle using the […] p<0.05 was considered significant.
The first level of testing was done using 10 μM concentrations of the compounds shown in Tables 1 and 2 added to 2 nM recombinant human ATX and the FRET substrate FS-3. After a 2 h incubation the amount of FS3 hydrolyzed was measured and the residual ATX activity was expressed as a percent of the vehicle-treated sample less the autolysis of FS3 in the absence of ATX.

[4] = target: recombinant, purified human ATX (Homo sapiens, UniProt Q13822); experiment: Mechanism of autotaxin inhibition (IC50, Ki, Ki′; FS-3 hydrolysis); assay type: biochemical; settings: for IC50: 8.3 nM ATX, 1 μM FS-3, 15 μM BSA; for ATX Mechanism of inhibition: FS-3 0.3 μM to 20 μM, inhibitor 0, 0.5× and 2× IC50
Procedure: The mechanism of inhibition of ATX was determined using recombinant, purified human ATX and FS-3. Final ATX and FS-3 concentrations were 8.3 nM and 1 μM, respectively and the assay buffer with 15 μM fatty acid tree BSA. To calculate IC50, full dose responses were determined for the test compounds. […] Simultaneous non-linear regression, using, WinNonLin® 6.1 (Pharsight, Mountain View, Calif.) was used to assign the mechanism of inhibition. Ki and Ki′ values (the affinity for free enzyme and enzyme substrate complex, respectively) were determined by calculating the lowest averaged percent residuals for each mechanism derived from curve fitting using the Michealis-Menten equations for competitive, uncompetitive, mixed-mode, and non-competitive inhibition.

[5] = 10 μM compound, 2 nM recombinant human ATX, 2 h
[6] = affinity for enzyme substrate complex

| Compound | ATX inhibition in dose-response curves (FIG. 10) (recombinant human ATX [1]) | LPC-dependent invasion of the HUVEC monolayer [2] | basal rate of invasion [2] | remaining activity at 10 µM (recombinant human ATX [3]; [5]) | inhibition at 10 µM (recombinant human ATX [3]) | IC50 [4] | ATX Mechanism of inhibition [4] | Ki [4, 6] | Ki ([4]; affinity for free enzyme) | inhibition at 10 µM (recombinant human ATX [3]; [5]) |
| --- | --- | --- | --- | --- | --- | --- | --- | --- | --- | --- |
| CCCCCCCCCCCCCCCc1ccc(CP(=O)(O)O)cc1 [Compound 22, 4-Pentadecylbenzylphosphonic acid] | dose-dependently and completely inhibited ATX | dose-dependently inhibited; also recorded: blockage | did not reduce | 5.2% | 95% | 170 nM | Mixed | 280 nM | 270 nM | – |
| CCCCCCCCCCC/C=C/c1ccc2cc(CP(=O)(O)O)ccc2c1 [Compound 30b, (E)-6-Tridec-1-enyl-naphthalen-2-yl-methylphosphonic acid] | dose-dependently and completely inhibited ATX | dose-dependently inhibited | did not reduce | 17.3% | – | 1400 nM | MIXED | 1010 nM | 1500 nM | 83% |
